# Laboratory results taken from patent publication US20130296384A1, “N-SUBSTITUTED(6 HALOALKYLPYRIDIN 3 YL)ALKYL SULFOXIMINES AS A SEED TREATMENT TO CONTROL COLEOPTERAN INSECTS” (Dow AgroSciences LLC, priority 2012, published 2013).
# Legend:
# canola (Brassica napus) [1] = assay: Canola seed treatment field test: canola plant yield under natural flea beetle infestation; assay type: in vivo; conditions: 107 days after canola emergence
# Method: (§1) The effectiveness of sulfoxaflor as a canola (Brassica napus) seed treatment to control feeding damage by cabbage flea beetle (Phyllotreta cruciferae) was evaluated against the commercial standard thiamethoxam (Helix Xtra). Canola seeds were sprayed with a range of insecticides, including Helix Xtra at a use rate of about 0.4 milligrams (mg) thiamethoxam ai/seed, spinosyn A and spinosyn D (spinosad) at a low use rate of about 0.2 mg ai/seed and a high use rate of about 0.6 mg ai/seed, spinetoram at a low use rate of about 0.2 mg ai/seed and a high use rate about 0.6 mg ai/seed, and sulfoxaflor at a low use rate of about 0.2 mg ai/seed and a high use rate about 0.6 mg ai/seed. Each treatment was replicated four (4) times. The canola seeds were planted and then exposed to a natural infestation of the cabbage flea beetles soon after emergence.
# Canola plant yield was evaluated at 107 days after the canola seed emerged from the ground described above. […] As depicted in FIG. 4, the low use rate of sulfoxaflor facilitated a canola plant yield similar to that facilitated by the use of Helix Xtra, and the high use rate of sulfoxaflor facilitated improved canola plant yield as compared to the use of Helix Xtra.
# canola (Brassica napus) [2] = assay: Canola seed treatment field test: canola plant vigor under natural flea beetle infestation; assay type: in vivo; conditions: 13 days after canola emergence
# Method: as §1
# Canola plant vigor was evaluated at thirteen (13) days after the canola seed emerged from the ground described above. […] As depicted in FIG. 3, both the low use rate of sulfoxaflor and the high use rate of sulfoxaflor facilitated improved canola plant vigor as compared to the use of Helix Xtra.
# [3] = high use rate about 0.6 mg ai/seed
# [4] = low use rate about 0.2 mg ai/seed
smiles,measurement,setting,value
CC(c1ccc(C(F)(F)F)nc1)S(C)(=O)=NC#N (stereo not shown) [sulfoxaflor],canola plant yield,canola (Brassica napus) [1]; [3],about 4500 kg/ha
same,canola plant yield,canola (Brassica napus) [1]; [4],about 4050 kilograms (Kg)/hectare (ha)
same,canola plant vigor,canola (Brassica napus) [2]; [3],about 69%
same,canola plant vigor,canola (Brassica napus) [2]; [4],about 87%
